Data reported in patent US8759301B2, “Gene fusion targeted therapy” (The Regents of The University of Michigan, priority 2010, dated 2014).
Changes are numbered by the printed parent chain. Like-named read-outs stand apart in the source and are kept apart here. Where a SMILES comes first, the peptide text is derived from it.

What was measured:
[1] = molecular target: T1, AR binding to ETS domain (Homo sapiens, UniProt P11308)
T1 sequence (P11308 311-391 limits assumed): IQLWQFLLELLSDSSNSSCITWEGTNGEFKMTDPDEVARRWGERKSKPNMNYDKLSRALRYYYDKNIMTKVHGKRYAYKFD
Description: Beads were eluted by SDS loading buffer and blotted with anti-GST mAb specifically against GST-AR (FIG. 30).
The cDNAs and fragments are cloned into pFN19A vector per manufacturer's protocol. In vitro translated proteins are generated by a wheat germ expression system (Promega) and immobilized onto HaloLink magnetic beads. After washing, the conjugated beads are incubated with GST-AR fusion proteins in the presence or absence of peptides. The bound proteins are analyzed by SDS-PAGE and blotted with anti-GST mAb (Sigma).

[2] = tested on: DU145; experiment: Cell invasion with TAT-peptides, DU145; format: cell-based; settings: FIG. 39
Text: (§1) Invaded cells were stained with crystal violet and photographed.

[3] = tested on: VCaP; experiment: DNA damage in VCaP with TAT peptides; format: cell-based; settings: FIG. 42
[4] = molecular target: T2, ERG (Homo sapiens, UniProt P11308)
T2 sequence (P11308 1-479): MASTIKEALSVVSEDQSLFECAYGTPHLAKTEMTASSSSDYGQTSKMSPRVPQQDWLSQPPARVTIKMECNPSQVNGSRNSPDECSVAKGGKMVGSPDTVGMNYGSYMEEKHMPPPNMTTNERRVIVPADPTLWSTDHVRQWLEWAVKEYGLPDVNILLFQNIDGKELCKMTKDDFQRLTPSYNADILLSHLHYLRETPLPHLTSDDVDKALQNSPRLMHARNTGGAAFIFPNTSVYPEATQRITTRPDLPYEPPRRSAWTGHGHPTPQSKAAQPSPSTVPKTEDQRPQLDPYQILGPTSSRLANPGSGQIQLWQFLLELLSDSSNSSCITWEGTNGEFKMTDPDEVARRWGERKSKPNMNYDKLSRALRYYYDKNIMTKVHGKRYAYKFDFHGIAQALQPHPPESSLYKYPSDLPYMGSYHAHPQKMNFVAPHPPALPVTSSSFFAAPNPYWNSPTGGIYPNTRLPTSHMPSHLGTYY

[5] = tested on: VCaP
Description: (§2) Briefly, equal numbers of the indicated cells were seeded onto the basement membrane matrix (EC matrix, Chemicon) present in the insert of a 24-well culture plate, with fetal bovine serum added to the lower chamber as a chemoattractant. After 48 h, non-invading cells and the EC matrix were removed by a cotton swab. Invaded cells were stained with crystal violet and photographed. The inserts were treated with 10% acetic acid and absorbance was measured at 560 nm.

[6] = tested on: VCaP; experiment: Cell invasion with TAT-peptides, VCaP; settings: FIG. 39
Description: as §2

[7] = tested on: VCaP; experiment: Cell proliferation with TAT-peptide, VCaP; format: cell-based; settings: FIG. 40
Text: Standard cell proliferation and apoptosis assays (Chinnaiyan et al., Cell, 1995. 81(4): p. 505-12; Chinnaiyan et al., Proc Natl Acad Sci USA, 2000. 97(4): p. 1754-9; Varambally et al., Nature, 2002. 419(6907): p. 624-9) are used to assess the inhibitory role of peptides in prostate cell proliferation driven by TMPRSS2:ETS fusions, using both the over-expression series and stable-knockdown series.

[8] = tested on: RWPE-1 cells transduced with ERG adenovirus; experiment: ERG-mediated invasion of RWPE-1 cells transduced with ERG adenovirus; format: cell-based; settings: TAT-tagged peptides, 2 μM, 48 hours, RWPE-1 with ERG adenovirus
Description: as §1
To investigate the ability of ERG-binding peptides to block ERG-mediated invasion, the prostate cell lines RWPE-1 transduced with ERG or LACZ adenovirus were incubated with TAT-tagged peptides. […] The relative number of invaded cells was also quantified by colorimetric assays.

[9] = molecular target: T3, ETS domain stretch RALRYYYDK (Arg367 to Lys375 in ERG), R367→K (Homo sapiens, UniProt P11308, R367K); format: binding
T3 construct: used a series of overlapping 19 amino acids segments of ETS domain; made in house
T3 sequence (P11308 311-391 R367K): T1 sequence (P11308 311-391 limits assumed) with R57K
Text: Interactive phage clones were sequenced and analyzed using bioinformatics approaches to identify consensus peptide sequence. […] The domains within ERG that mediate the binding of isolated phage clones were mapped using a panel of ERG deletion mutants expressed as HaloTag fusion protein. A total of 6 domains, namely N-term, ETS, CAE, PNT, CD, and CTD (Carrere et al., Oncogene, 1998. 16(25): p. 3261-8), were cloned and expressed in TNT SP6 wheat germ system. Without purification, the expression reactions were coated on HaloLink Array system and incubated with individual phage clones. The interaction signal was detected by Cy3-labled anti-M13 antibody, which is specifically directed against the phage capsid protein (FIG. 28). […] Further mapping studies used a series of overlapping 19 amino acids segments of ETS domain specifically localized the binding site to a 9 amino-acids conserved stretch […] (SEQ ID NO. 1) corresponding to the residues Arg^367 to Lys^375 in ERG (FIG. 29). The conserved region of the amino acids specifically involved in peptide binding was then located.

[10] = tested on: TMPRSS2 and ERG loci in LNCaP cells
[11] = tested on: TMPRSS2 and ERG loci in DU145 cells
[12] = tested on: TMPRSS2-ERG fusion transcript in LNCaP cells; settings: DHT 10 nM, 12 hours
Description: It was investigated whether stimulation with androgen (e.g. DHT) could create gene fusions by coupling androgen stimulation with an agent that causes DNA double strand breaks. LNCaP cells were hormone depleted, followed by stimulation with DHT (10 nM, 12 hours), irradiation (1 or 3 Gy) and clonal expansion of single cells in 96 well plates using flow sorting. The presence of the TMPRSS2-ERG fusion transcript was determined using quantitative reverse-transcription PCR (QRT-PCR) with both SYBR green and TaqMan assays spanning the chimeric region.

[13] = tested on: TMPRSS2-ERG and wild-type ERG transcripts; format: cell-based
Description: All PCR experiments were performed in triplicates.

With “TAT-LSFGSLP: TAT linked to LSFGSLP (SEQ ID NO: 2) (not fully specified; left off: small tags and cut ends)” the “ERG interactome (through ETS domain)” value [1] was “blocked”, the DU145 invasion [2] was “not” and the “DNA damage in VCaP” value [3] was “inhibit”. The ERG transcription activities [4] was “blocked”, the “cell invasion driven by ERG” value [5] was “attenuated” and the VCaP invasion [6] was “inhibit”. For the same compound, the VCaP proliferation [7] was “inhibits”.

With “TAT-LPPYLFT: TAT linked to LPPYLFT (SEQ ID NO: 45) (not fully specified; left off: small tags and cut ends)” the “ERG interactome (through ETS domain)” value [1] was “blocked”, the DU145 invasion [2] was “not” and the ERG transcription activities [4] was “blocked”. The “cell invasion driven by ERG” value [5] was “attenuated”, the VCaP invasion [6] was “inhibit” and the VCaP proliferation [7] was “inhibited”.

For LPPYLFT, the ERG-driven invasion [8] was “blocked”.

`CC(C)C[C@H](NC(=O)[C@H](CO)NC(=O)CNC(=O)[C@H](Cc1ccccc1)NC(=O)[C@H](CO)NC(=O)[C@@H](N)CC(C)C)C(=O)N1CCC[C@H]1C(=O)O` [LSFGSLP] (H-LSFGSLP-OH) was tested, and the “phage peptide binding after single amino acid substitution R367→K” value [9] was “completely abolished”.

For `C[C@]12CCC(=O)C[C@@H]1CC[C@@H]1[C@@H]2CC[C@]2(C)[C@@H](O)CC[C@@H]12` [DHT, Dihydrotestosterone], the “proximity between the TMPRSS2 and ERG loci” value [10] was “induced proximity”, the “proximity between TMPRSS2 and ERG” value [11] was “not observed” and the “clones harboring TMPRSS2-ERG fusion transcripts” value ([12]; then 1 Gy irradiation) was 2.3%. The “clones harboring TMPRSS2-ERG fusion transcripts” value ([12]; then 3 Gy irradiation) was 25%.

In the case of “UGG UCA GAG AGA AGC AAU A [wild-type ERG siRNA]”, the TMPRSS2-ERG expression [13] is reported as “did not affect”.
